Consider 29 compounds from US20230113037A1 (Bayer Aktiengesellschaft, priority 2019, published 2023).

pIC50: −log10 of the molar value.

This test deals with T1, AHR (Mus musculus, UniProt P30561).
T1 sequence (P30561 1-848 P471L/N533S/M589L): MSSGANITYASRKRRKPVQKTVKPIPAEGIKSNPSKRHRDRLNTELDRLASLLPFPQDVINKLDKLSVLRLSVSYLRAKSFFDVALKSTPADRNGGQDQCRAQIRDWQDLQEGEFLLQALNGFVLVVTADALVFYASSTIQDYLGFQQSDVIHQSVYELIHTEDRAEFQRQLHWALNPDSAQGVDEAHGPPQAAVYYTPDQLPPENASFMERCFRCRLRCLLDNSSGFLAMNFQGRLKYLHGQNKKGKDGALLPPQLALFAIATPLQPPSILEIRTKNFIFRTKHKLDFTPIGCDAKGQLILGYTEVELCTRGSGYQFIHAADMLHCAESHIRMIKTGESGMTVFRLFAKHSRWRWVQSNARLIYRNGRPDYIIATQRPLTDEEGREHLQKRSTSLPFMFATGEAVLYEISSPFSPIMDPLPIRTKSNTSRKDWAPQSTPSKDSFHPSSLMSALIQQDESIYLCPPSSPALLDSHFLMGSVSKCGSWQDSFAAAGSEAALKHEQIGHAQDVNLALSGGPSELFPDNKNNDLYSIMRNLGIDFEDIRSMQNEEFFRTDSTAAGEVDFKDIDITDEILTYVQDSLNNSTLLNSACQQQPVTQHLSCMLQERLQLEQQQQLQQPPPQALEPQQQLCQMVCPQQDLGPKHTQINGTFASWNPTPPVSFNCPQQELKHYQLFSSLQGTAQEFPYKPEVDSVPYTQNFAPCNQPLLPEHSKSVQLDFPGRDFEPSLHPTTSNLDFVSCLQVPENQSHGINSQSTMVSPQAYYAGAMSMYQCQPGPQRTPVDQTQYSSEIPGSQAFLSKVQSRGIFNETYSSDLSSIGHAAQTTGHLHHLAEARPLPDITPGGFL
As to the kind of experiment: In vitro assay 3: antagonism in mouse cell line (AHR transactivation, firefly luciferase reporter, kynurenic acid prestimulated). Conditions: mouse Hepa 1c1c7 cells, 200 μM kynurenic acid, 20 hours, read-out: AHR Antagonism Mouse IC50. Type of test: cell-based. Here is the method:
Examples were tested in selected biological assays one or more times. When tested more than once, data are reported as either average values or as median values, wherein • the average value, also referred to as the arithmetic mean value, represents the sum of the values obtained divided by the number of times tested, and • the median value represents the middle number of the group of values when ranked in ascending or descending order. If the number of values in the data set is odd, the median is the middle value. If the number of values in the data set is even, the median is the arithmetic mean of the two middle values.
In addition the cells were stably transfected with an AHR inducible firefly luciferase reporter gene construct that carried AHR-binding sites (DRE) in its promoter. Kynurenic acid is an endogenous AHR activating ligand and was used to prestimulate test cells prior to testing the antagonistic properties of compounds.
As positive inhibition control cells without addition of kynurenic acid were incubated. Normalization was done by positive and negative controls.
Firefly luciferase activity was determined by the SteadyGlo Luciferase Assay System (Promega, #E2550).
On the technique in general: Reporter assays use an easily measured gene product as a stand-in for the process of interest.

For orientation: pIC50 means −log10 of the IC50, conventionally taken in molar units. Regarding `COc1ccc(-c2nc3c4ccccc4nc(NC4CCCNC4=O)n3n2)cc1` (single isomer, unassigned) [Example 37, 3-{[2-(4-methoxyphenyl)[1,2,4]triazolo[1,5-c]quinazolin-5-yl]amino}piperidin-2-one], the pIC50 is 6.62. The value for `COc1ccc(-c2nc3c4c(Cl)cccc4nc(NC4CNCCNC4=O)n3n2)cc1` (single isomer, unassigned) [Example 296, 6-{[10-Chloro-2-(4-methoxyphenyl)[1,2,4]triazolo[1,5-c]quinazolin-5-yl]amino}-1,4-diazepan-5-one] was 7.14. The value for `COc1ccc(-c2nc3c4c(Cl)cccc4nc(NC4CNCCNC4=O)n3n2)cc1` (single isomer, unassigned) [Example 297, 6-{[10-chloro-2-(4-methoxyphenyl)[1,2,4]triazolo[1,5-c]quinazolin-5-yl]amino}-1,4-diazepan-5-one] was 7.60; that for `O=C1NCCNCC1Nc1nc2cccc(Cl)c2c2nc(-c3ccc(F)cc3)nn12` (single isomer, unassigned) [Example 298, 6-{[10-chloro-2-(4-fluorophenyl)[1,2,4]triazolo[1,5-c]quinazolin-5-yl]amino}-1,4-diazepan-5-one] was 7.20. On to `O=C1NCCNCC1Nc1nc2cccc(Cl)c2c2nc(-c3ccc(F)cc3)nn12` (single isomer, unassigned) [Example 299, 6-{[10-chloro-2-(4-fluorophenyl)[1,2,4]triazolo[1,5-c]quinazolin-5-yl]amino}-1,4-diazepan-5-one], for which the pIC50 is 7.43. For `Cn1cc(-c2nc3c4cccc(C(F)(F)F)c4nc(NC4C(=O)NCC4(C)C)n3n2)cn1` (single isomer, unassigned; (+)) [Example 730, (+)-4,4-dimethyl-3-{[2-(1-methyl-1H-pyrazol-4-yl)-7-(trifluoromethyl)[1,2,4]triazolo[1,5-c]quinazolin-5-yl]amino}pyrrolidin-2-one], the pIC50 is less than 4.70. Regarding `COc1ccc(-c2nc3c4c(Br)cccc4nc(N[C@@H]4CNCCNC4=O)n3n2)cc1` (stereo in doubt) [Example 281, 6-{[10-bromo-2-(4-methoxyphenyl)[1,2,4]triazolo[1,5-c]quinazolin-5-yl]amino}-1,4-diazepan-5-one], the pIC50 is 7.63. On to `O=C1NCCCC[C@@H]1Nc1nc2ccccc2c2nc(-c3ccccc3)nn12` [Example 1, (3S)-3-[(2-phenyl[1,2,4]triazolo[1,5-c]quinazolin-5-yl)amino]azepan-2-one], for which the pIC50 was 8.31. As to `O=C1NCCCC[C@@H]1Nc1nc2ccccc2c2nc(-c3ccc(Cl)cc3)nn12` [Example 7, (3S)-3-{[2-(4-chlorophenyl)[1,2,4]triazolo[1,5-c]quinazolin-5-yl]amino}azepan-2-one], the pIC50 is 8.61. The value for `Cn1cc(-c2nc3c4ccccc4nc(N[C@H](CO)C(N)=O)n3n2)cn1` [Example 16, N^2-[2-(1-methyl-1H-pyrazol-4-yl)[1,2,4]triazolo[1,5-c]quinazolin-5-yl]-D-serinamide] was less than 4.70. The value for `COc1ccc(-c2nc3c4ccccc4nc(N[C@@H](CCCCNC(=O)OC(C)(C)C)C(N)=O)n3n2)cc1` [Example 25, tert-butyl [(5S)-6-amino-5-{[2-(4-methoxyphenyl)[1,2,4]triazolo[1,5-c]quinazolin-5-yl]amino}-6-oxohexyl]carbamate] was 6.31. Regarding `COc1ccc(-c2nc3c4ccccc4nc(N[C@H](CO)C(N)=O)n3n2)cc1` [Example 26, N^2-[2-(4-methoxyphenyl)[1,2,4]triazolo[1,5-c]quinazolin-5-yl]-D-serinamide], the pIC50 is 7.78. Take `COc1ccc(-c2nc3c4ccccc4nc(N[C@H](CC(C)C)C(N)=O)n3n2)cc1` [Example 27, N^2-[2-(4-methoxyphenyl)[1,2,4]triazolo[1,5-c]quinazolin-5-yl]-D-leucinamide]: the pIC50 is 8.01.

As to `COc1ccc(-c2nc3c4ccccc4nc(NC4CCCNC4=O)n3n2)cc1` (centres unmarked) [Example 28, 3-{[2-(4-methoxyphenyl)[1,2,4]triazolo[1,5-c]quinazolin-5-yl]amino}piperidin-2-one], the pIC50 was 8.18. Turning to `COc1ccc(-c2nc3c4ccccc4nc(N[C@H]4CCCCNC4=O)n3n2)cc1` [Example 30, (3S)-3-{[2-(4-methoxyphenyl)[1,2,4]triazolo[1,5-c]quinazolin-5-yl]amino}azepan-2-one], the pIC50 is 8.01. For `COc1ccc(-c2nc3c4ccccc4nc(NC4CCNC4=O)n3n2)cc1` (centres unmarked) [Example 31, 3-{[2-(4-methoxyphenyl)[1,2,4]triazolo[1,5-c]quinazolin-5-yl]amino}pyrrolidin-2-one], the pIC50 was 7.87. In the case of `COc1ccc(-c2nc3c4ccccc4nc(NC4CNCCNC4=O)n3n2)cc1` (centres unmarked) [Example 34, 6-{[2-(4-methoxyphenyl)[1,2,4]triazolo[1,5-c]quinazolin-5-yl]amino}-1,4-diazepan-5-one], the pIC50 is 7.62. For `Cc1ccc(-c2nc3c4ccccc4nc(N[C@@H]4CCCCNC4=O)n3n2)cc1` [Example 56, (3R)-3-{[2-(4-methylphenyl)[1,2,4]triazolo[1,5-c]quinazolin-5-yl]amino}azepan-2-one], the pIC50 is 9.74. On to `O=C1NCCCC[C@@H]1Nc1nc2ccccc2c2nc(-c3ccc(F)cc3)nn12` [Example 71, (3S)-3-{[2-(4-fluorophenyl)[1,2,4]triazolo[1,5-c]quinazolin-5-yl]amino}azepan-2-one], for which the pIC50 is 8.41. The figure for `O=C1NCCCC1Nc1nc2ccccc2c2nc(-c3ccc(F)cc3)nn12` (centres unmarked) [Example 72, 3-{[2-(4-fluorophenyl)[1,2,4]triazolo[1,5-c]quinazolin-5-yl]amino}piperidin-2-one] is 8.00. As for `O=C1NCCC1Nc1nc2ccccc2c2nc(-c3ccc(F)cc3)nn12` (centres unmarked) [Example 73, 3-{[2-(4-fluorophenyl)[1,2,4]triazolo[1,5-c]quinazolin-5-yl]amino}pyrrolidin-2-one], the pIC50 is 8.41.

On to `COc1cccc(-c2nc3c4ccccc4nc(N[C@@H](C(=O)O)C(C)C)n3n2)c1` [Example 94, N-[2-(3-methoxyphenyl)[1,2,4]triazolo[1,5-c]quinazolin-5-yl]-D-valine], for which the pIC50 is 7.77. Regarding `CC[C@@H](Nc1nc2ccccc2c2nc(-c3cccc(OC)c3)nn12)C(=O)O` [Example 95, (2R)-2-{[2-(3-methoxyphenyl)[1,2,4]triazolo[1,5-c]quinazolin-5-yl]amino}butanoic acid], the pIC50 is 6.40. With `COc1cccc(-c2nc3c4ccccc4nc(N[C@H](CCSC)C(N)=O)n3n2)c1` [Example 96, N^2-[2-(3-methoxyphenyl)[1,2,4]triazolo[1,5-c]quinazolin-5-yl]-D-methioninamide], the pIC50 is 6.57. Turning to `COc1cccc(-c2nc3c4ccccc4nc(NC(C)(C)C(N)=O)n3n2)c1` [Example 98, N^2-[2-(3-methoxyphenyl)[1,2,4]triazolo[1,5-c]quinazolin-5-yl]-2-methylalaninamide], the negative-log IC50 (pIC50) is 5.94. The figure for `O=C1NCCCC[C@H]1Nc1nc2c(F)cccc2c2nc(-c3ccc(F)cc3)nn12` [Example 139, (3R)-3-{[7-fluoro-2-(4-fluorophenyl)[1,2,4]triazolo[1,5-c]quinazolin-5-yl]amino}azepan-2-one] is 9.59; for `COc1cccc(-c2nc3c4cc(C)ccc4nc(N[C@H]4CCCCNC4=O)n3n2)c1` [Example 156, (3S)-3-{[2-(3-methoxyphenyl)-9-methyl[1,2,4]triazolo[1,5-c]quinazolin-5-yl]amino}azepan-2-one] it is 7.85; for `COc1cccc(-c2nc3c4cc(C)ccc4nc(NC4CCCNC4=O)n3n2)c1` (centres unmarked) [Example 157, 3-{[2-(3-methoxyphenyl)-9-methyl[1,2,4]triazolo[1,5-c]quinazolin-5-yl]amino}piperidin-2-one] it is 7.34. Turning to `O=C1NCCCC[C@H]1Nc1nc2cccc(Br)c2c2nc(-c3ccc(F)cc3)nn12` [Example 166, (3R)-3-{[10-bromo-2-(4-fluorophenyl)[1,2,4]triazolo[1,5-c]quinazolin-5-yl]amino}azepan-2-one], the pIC50 was 8.59.
